No end group written: not given here.
How the values were obtained:
[1] = tested on: RFL cells (rat lung fetal cells); assay: Cell fusion activity in RFL cells; format: cell-based; details: peptide 1 μg/mL, cultured 24-36 hours, nuclear staining
Experimental: (§1) In this Example, the peptide 1 obtained in Example 1 was added to RFL cells (rat lung fetal cells) or LLC cells (Lewis lung carcinoma-derived cells), and the cell fusion activity of the peptide was examined.
(§2) RFL cells or LLC cells (2×10^6 cells) were suspended in 6 mL of RPMI-1640 medium (Wako, 189-02025) supplemented with 5% FBS (Biosera, Cat No. 015BS493) and 8×10^4 cells/0.25 mL were dispensed to each well of 24 well plate (Iwaki, 2820-024)), and cultured. The medium was removed, and a fresh medium (20 μL) and peptide 1 (1 μg/mL) were dispensed, and the cells were further cultured for 24-36 hours. After the culture was completed, the cells were fixed with methanol (Wako), and nuclear-stained with Gimza staining solution (Muto Kagaku 15003) for microscopic examination.

RM-4 cells [2] = assay: Cell fusion activity in RM-4 cells; format: cell-based, rat; details: peptide 1 μg/mL, cultured 24-36 hours, nuclear staining
Experimental: as §2
In this Example, the cell fusion activity of the peptide 6 was examined. The procedure of Example 2 was repeated, except that the peptide 6 was used instead of the peptide 1, and the RM-4 cells only used instead of the LCC cells. In connection with this, RM-4 cells are cancer cells in which RFL cells were infected with Moloney murine leukemia virus and selected.

[3] = tested on: A549 cells (human alveolar epithelial adenocarcinoma cells); assay: Anticancer effect on A549 cells transplanted into nude mice; format: in vivo; details: 25 mg/kg intravenous
Experimental: In this example, the anticancer effect of peptide 6 on A549 cells (human alveolar epithelial adenocarcinoma cells) was examined in vivo.
CAnN.Cg-Foxn1nu/CrlCrlj nude mice were divided into groups of 6 animals each. A549 cells suspended in PBS at a concentration of 4×10^6 cells/mL were transplanted subcutaneously to the right ventral part thereof. The peptide 6 was administered intravenously from the tail vein at a dose of 25 mg/kg (peptide 6 group) on 14, 17, 21, 24, 28, 31, 35, and 38 days later after tumor transplantation. Control group was administered PBS only.
Tumor volume and body weight were measured every 3 or 4 days, and the tumor was resected on 38 days after tumor transplantation (on […] after the start of peptide administration). The tumor volume was calculated from the formula “estimated tumor volume=(minor axis)^2×(major axis)÷2” by measuring the minor axis and major axis with a caliper. […] 5 mice were evaluated.

[4] = tested on: LLC cells (Lewis lung carcinoma-derived cells); assay: Cell fusion activity in LLC cells; format: cell-based; details: LLC (printed LCC) cells, peptide 1 μg/mL, cultured 24-36 hours, nuclear staining
Experimental: as §1, §2

RM-4 cells [5] = assay: Apoptosis induction in RM-4 cells (Caspase-3/7 and Annexin V, IncuCyte S3); format: cell-based, rat; details: 0.06 μg/mL peptide
Experimental: In this Example, the apoptosis ability of peptide 1 was examined using the RM-4 cells. An activity of Caspase-3/7 and an activity of AnnexinV (red fluorescence) which are indications of apoptosis, was measured using IncuCyte S3 live cell analysis system (Essen BioScience).
The activity of Caspase-3/7 activity is measured using an inert non-fluorescent (DEVD) substrate that can penetrate the cell membrane. An activated Caspase-3/7 cleaves the substrate, and thereby a DNA-bound green fluorescent label is released. The activity of Caspase-3/7 is measured by the intensity of green fluorescence.
The activity of Annexin V is measured using a photostable CF dye. CF dye emits a red fluorescent signal when bound to phosphatidylserine (PS). The activity of Annexin V is measured by the red fluorescent signal.
RM-4 cells were seeded on 96-well plates and 0.06 μg/mL of peptide 1 was added thereto. Caspase-3/7 Green Reagent (Unit size: 20 ul, 5 mM/vial) was diluted 500-fold with Ham's F-12K and added thereto. Then, Annexin V Red Reagent (Unit size: 100 tests/vial) was diluted 100-fold with Ham's F-12K and added thereto. They were measured using the IncuCyte S3 live cell analysis system, by continuously scanning every hour for 3 days with an objective lens of magnification of 10 times and 4 fields of view. As a control, RM-4 cells which were not treated with peptide 1, were used.

[6] = tested on: RFL cells (rat lung fetal cells); assay: Cell fusion activity in RFL cells; format: cell-based; details: peptide 9 vs peptide 1, peptide 1 vs peptide 10

Row | Substance | cell fusion activity (fusion cells with multiple nuclei, microscopy) [1] | also measured
1 | CH3-Pro-Ile-Val-Ser-Thr-Gln-Thr-Ala-Ile-Ala (Me-PIVSTQTAIA) [peptide 5] | cells are fused and fusion cells with multiple nuclei were found | –
2 | CH3-Pro-Ile-Val-Ser-Gln-Thr-Thr-Ala-Ile-Ala (Me-PIVSQTTAIA) [peptide 7] | cells are fused and fusion cells with multiple nuclei were found | –
3 | CH3-Pro-Leu-Val-Ser-Thr-Gln-Thr-Ala-Leu-Ala (Me-PLVSTQTALA) [peptide 2] | cells are fused and fusion cells with multiple nuclei were found | –
4 | CH3-Pro-Leu-Val-Ser-Gln-Thr-Thr-Ala-Ile-Ala (Me-PLVSQTTAIA) [peptide 3] | cells are fused and fusion cells with multiple nuclei were found | –
5 | CH3-Pro-Leu-Val-Ser-Gln-Thr-Thr-Ala-Leu-Ala (Me-PLVSQTTALA) [peptide 4] | cells are fused and fusion cells with multiple nuclei were found | –
6 | PLVSTQTAIA [peptide 10] | cells are fused and fusion cells with multiple nuclei were found | –
7 | CH3-Pro-Ile-Val-Ser-Thr-Gln-Thr-Ala-Leu-Ala (Me-PIVSTQTALA) [peptide 6] | cells are fused and fusion cells with multiple nuclei were found | cell fusion activity (fusion cells with multiple nuclei, microscopy) (RM-4 cells [2]): cells are fused and fusion cells with multiple nuclei were found; tumor volume ([3]; A549 subcutaneous in nude mice, 8 administrations, 28 days): tumor volumes were reduced; histology of HE-stained excised tumor ([3]; A549 tumor resected 38 days after transplantation): the inside of the tumor was necrotic
8 | CH3-Pro-Leu-Val-Ser-Thr-Gln-Thr-Ala-Ile-Ala (Me-PLVSTQTAIA) [peptide 1] | cells are fused and fusion cells with multiple nuclei were found | cell fusion activity (fusion cells with multiple nuclei, microscopy) [4]: cells are fused and fusion cells with multiple nuclei were found; apoptosis induction (fluorescence micrographs) (RM-4 cells [5]; after 18 and 78 hours): induced apoptosis in RM-4 cells; activity of Annexin V (red fluorescence) (RM-4 cells [5]; scanned every hour for 3 days): increased sharply between 10 and 20 hours, and then gradually increased; activity of Caspase-3/7 (green fluorescence) (RM-4 cells [5]; scanned every hour for 3 days): increased sharply between 10 and 20 hours, and then gradually increased; cell fusion activity compared with another peptide [6]: seemed to be stronger
9 | CH3-Pro-Leu-Val-Ser-Thr-Gln-Thr-Ala-Ile-Ala-Thr-Ala (Me-PLVSTQTAIATA) [peptide 9] | cells are fused and fusion cells with multiple nuclei were found | cell fusion activity compared with another peptide [6]: superior to peptide 1
10 | CH3-Pro-Ile-Val-Ser-Gln-Thr-Thr-Ala-Leu-Ala (Me-PIVSQTTALA) [peptide 8] | cells are fused and fusion cells with multiple nuclei were found | cell fusion activity (fusion cells with multiple nuclei, microscopy) [4]: cells are fused and fusion cells with multiple nuclei were found
